Measurements reported in the NIST ThermoML archive (doi:10.1021/je2000606).

Assays:
[1] = 101.33 kPa, Liquid; for viscosity: Falling or rolling sphere viscometry; for mass density: Vibrating tube method
[2] = refractive index (Na D-line) (dimensionless); details: 101.33 kPa, Liquid, Standard Abbe refractometry
[3] = xn = mol fraction of the nth substance listed; details: 101 kPa, Liquid
[4] = refractive index (Na D-line) (dimensionless); xn = mol fraction of the nth substance listed; details: 101 kPa, Liquid

CCCCn1cc[n+](C)c1.C[C@H](N)C(=O)[O-] [3-butyl-1-methyl-1H-imidazolium L-alaninate]
Details | mass density, [1] [kg/m3] | refractive index, [2] | viscosity, [1] [mPa·s]
298.15 K | 1080.2 | 1.5184 | 78.3
303.15 K | 1076.5 | 1.5168 | 59.77
308.15 K | 1074.2 | 1.5153 | 47.03
313.15 K | 1071.1 | 1.5135 | 37.95

CCCCn1cc[n+](C)c1.C[C@H](N)C(=O)[O-] [3-butyl-1-methyl-1H-imidazolium L-alaninate] + CO
Details | mass density, [3] [kg/m3] | refractive index, [4] | viscosity, [3] [mPa·s]
298.15 K, x1 = 0.0986 | 906.31 | 1.3952 | 1.824
298.15 K, x1 = 0.2015 | 968.55 | 1.438 | 2.979
298.15 K, x1 = 0.2837 | 998.11 | 1.4595 | 4.892
298.15 K, x1 = 0.3985 | 1024.98 | 1.4787 | 8.963
298.15 K, x1 = 0.5105 | 1042.62 | 1.4914 | 15.2
298.15 K, x1 = 0.6035 | 1053.47 | 1.4994 | 22.23
298.15 K, x1 = 0.7011 | 1062.38 | 1.5058 | 31.13
298.15 K, x1 = 0.8152 | 1070.44 | 1.5111 | 45.03
298.15 K, x1 = 0.9139 | 1076 | 1.5147 | 60.33
303.15 K, x1 = 0.0986 | 901.65 | 1.3926 | 1.753
303.15 K, x1 = 0.2015 | 963.93 | 1.435 | 2.76
303.15 K, x1 = 0.2837 | 993.59 | 1.4564 | 3.714
303.15 K, x1 = 0.3985 | 1020.56 | 1.4755 | 6.403
303.15 K, x1 = 0.5105 | 1038.31 | 1.4883 | 10.73
303.15 K, x1 = 0.6035 | 1049.27 | 1.4964 | 16.01
303.15 K, x1 = 0.7011 | 1058.3 | 1.5029 | 22.63
303.15 K, x1 = 0.8152 | 1066.5 | 1.5087 | 32.91
303.15 K, x1 = 0.9139 | 1072.2 | 1.5126 | 45.02
308.15 K, x1 = 0.0986 | 896.59 | 1.3901 | 1.829
308.15 K, x1 = 0.2015 | 959.34 | 1.4323 | 2.349
308.15 K, x1 = 0.2837 | 989.32 | 1.4533 | 3.429
308.15 K, x1 = 0.3985 | 1016.81 | 1.4723 | 5.513
308.15 K, x1 = 0.5105 | 1034.85 | 1.485 | 9.168
308.15 K, x1 = 0.6035 | 1046.07 | 1.493 | 13.4
308.15 K, x1 = 0.7011 | 1055.34 | 1.5 | 18.29
308.15 K, x1 = 0.8152 | 1063.85 | 1.5059 | 26.27
308.15 K, x1 = 0.9139 | 1069.71 | 1.5105 | 35.3
313.15 K, x1 = 0.0986 | 892.46 | 1.3881 | 1.34
313.15 K, x1 = 0.2015 | 955.28 | 1.4297 | 2.113
313.15 K, x1 = 0.2837 | 985.35 | 1.4502 | 2.792
313.15 K, x1 = 0.3985 | 1012.89 | 1.4692 | 5.197
313.15 K, x1 = 0.5105 | 1031.1 | 1.4817 | 8.3
313.15 K, x1 = 0.6035 | 1042.42 | 1.4898 | 11.91
313.15 K, x1 = 0.7011 | 1051.82 | 1.497 | 15.87
313.15 K, x1 = 0.8152 | 1060.49 | 1.5034 | 21.92
313.15 K, x1 = 0.9139 | 1066.51 | 1.5082 | 29.18

CCCCn1cc[n+](C)c1.C[C@H](N)C(=O)[O-] [3-butyl-1-methyl-1H-imidazolium L-alaninate] + OCc1ccccc1
Details | mass density, [3] [kg/m3] | refractive index, [4] | viscosity, [3] [mPa·s]
298.15 K, x1 = 0.1012 | 1052.86 | 1.5355 | 6.989
298.15 K, x1 = 0.1939 | 1059.8 | 1.534 | 8.647
298.15 K, x1 = 0.3103 | 1066.02 | 1.532 | 11.9
298.15 K, x1 = 0.3971 | 1069.57 | 1.5304 | 14.7
298.15 K, x1 = 0.4864 | 1072.4 | 1.5287 | 18.75
298.15 K, x1 = 0.6015 | 1075.14 | 1.5264 | 26.24
298.15 K, x1 = 0.6945 | 1076.58 | 1.5245 | 34.42
298.15 K, x1 = 0.8015 | 1077.73 | 1.5223 | 46.72
298.15 K, x1 = 0.9026 | 1078.72 | 1.5203 | 61.33
303.15 K, x1 = 0.1012 | 1048.56 | 1.5333 | 5.691
303.15 K, x1 = 0.1939 | 1055.61 | 1.5319 | 6.738
303.15 K, x1 = 0.3103 | 1061.88 | 1.53 | 9.274
303.15 K, x1 = 0.3971 | 1065.49 | 1.5285 | 11.46
303.15 K, x1 = 0.4864 | 1068.42 | 1.5268 | 14.62
303.15 K, x1 = 0.6015 | 1071.16 | 1.5246 | 20.5
303.15 K, x1 = 0.6945 | 1072.71 | 1.5227 | 26.62
303.15 K, x1 = 0.8015 | 1073.95 | 1.5206 | 35.94
303.15 K, x1 = 0.9026 | 1074.98 | 1.5186 | 46.96
308.15 K, x1 = 0.1012 | 1045.09 | 1.5308 | 4.951
308.15 K, x1 = 0.1939 | 1052.25 | 1.5295 | 5.953
308.15 K, x1 = 0.3103 | 1058.75 | 1.5277 | 7.695
308.15 K, x1 = 0.3971 | 1062.51 | 1.5263 | 9.977
308.15 K, x1 = 0.4864 | 1065.53 | 1.5247 | 12.61
308.15 K, x1 = 0.6015 | 1068.43 | 1.5226 | 17.36
308.15 K, x1 = 0.6945 | 1070.11 | 1.5209 | 22.13
308.15 K, x1 = 0.8015 | 1071.46 | 1.5189 | 29.01
308.15 K, x1 = 0.9026 | 1072.58 | 1.517 | 36.89
313.15 K, x1 = 0.1012 | 1041.62 | 1.5286 | 4.28
313.15 K, x1 = 0.1939 | 1048.77 | 1.5273 | 5.515
313.15 K, x1 = 0.3103 | 1055.35 | 1.5256 | 7.175
313.15 K, x1 = 0.3971 | 1059.07 | 1.5242 | 8.904
313.15 K, x1 = 0.4864 | 1062.18 | 1.5227 | 11.02
313.15 K, x1 = 0.6015 | 1065.2 | 1.5206 | 15.01
313.15 K, x1 = 0.6945 | 1066.87 | 1.5189 | 18.65
313.15 K, x1 = 0.8015 | 1068.31 | 1.517 | 24.47
313.15 K, x1 = 0.9026 | 1069.52 | 1.5152 | 30.69

OCc1ccccc1 [benzenemethanol]
Details | mass density, [1] [kg/m3] | refractive index, [2] | viscosity, [1] [mPa·s]
298.15 K | 1041.64 | 1.5371 | 5.55
303.15 K | 1037.42 | 1.5349 | 4.675
308.15 K | 1033.84 | 1.5323 | 4.01
313.15 K | 1030.43 | 1.5301 | 3.522

CO [methanol]
Details | mass density, [1] [kg/m3] | refractive index, [2] | viscosity, [1] [mPa·s]
298.15 K | 786.4 | 1.3266 | 0.532
303.15 K | 782.2 | 1.3243 | 0.515
308.15 K | 776.7 | 1.3224 | 0.465
313.15 K | 772.9 | 1.3208 | 0.441
